These results are taken from ChEMBL document CHEMBL1142974, “Design, synthesis, and evaluation of the antiproliferative activity of a series of novel fused xanthenone aminoderivatives in human breast cancer cells” (J Med Chem, 2007).

Activity calls are given as the source filed them. No cut-off for these calls is given here.

For one test, the system named is MDA-MB-231. Description: Growth inhibition of human MDA-MB-231 cells at 100 uM by WST-1 method after 72 hrs. Type of test: functional, cell-based.
Settings: not given
For the compound `CCN(CC)CCNc1cc2nc[nH]c2c2oc3ccccc3c(=O)c12`, the outcome was Active.

Turning to `CN(C)CCNc1cc2nc[nH]c2c2oc3ccccc3c(=O)c12`, the outcome was Active.

In another test the test system is MDA-MB-231. Description: Antiproliferative activity against human MDA-MB-231 cells by WST-1 method after 72 hrs. It is filed as functional, cell-based. Particulars: MDA-MB-231, 72 h.
Turning to `CCN(CC)CCn1nc2c3c(c4[nH]cnc4cc31)Oc1ccccc1-2`, the half-inhibitory concentration (IC50) was found to be 8.5 µM.

In turn, `CCN(CC)CCn1nc2c3c(c4[nH]c(C)nc4cc31)Oc1ccccc1-2` displayed an IC50 of 18 µM.

In turn, `CN(C)CCn1nc2c3c(c4[nH]cnc4cc31)Oc1ccccc1-2` yielded an IC50 of 6.5 µM.

`Cc1nc2cc3c4c(nn3CCN(C)C)-c3ccccc3Oc4c2[nH]1` returned an IC50 of 17 µM.

What is called IC50 is the concentration at which inhibition is half-maximal.
